# Measured values published in patent publication US20150126465A1, “PROCESS FOR PRODUCING DERIVATIVES OF PYROSTEGIA VENUSTA, DERIVATIVES OF PYROSTEGIA VENUSTA, PHARMACEUTICAL COMPOSITIONS AND ITS USES” (priority 2011, published 2015).
# Test system: Candida albicans USP 1565
# Test: MIC by microdilution (CLSI M27-A2)
# Type: cell-based
# Conditions: Candida albicans, USP1565; Table 12, C. albicans USP 1565, 48 h, 35° C.; read-out: MIC
smiles,measurement,value
Clc1ccc(COC(Cn2ccnc2)c2ccc(Cl)cc2Cl)c(Cl)c1 (stereo not shown) [Miconazol],MIC,< 0.125 µg/mL
